Data published in BindingDB's records for doi:10.1016/s0960-894x(01)00038-5 (Glaxosmithkline, 2001).
pIC50: −log10 of the molar value.

Target: Lipoprotein-associated phospholipase A2 (Rattus norvegicus)
Experiment: Concentration required for inhibition ofLipoprotein associated phospholipase A2 in rat at dose 2 umol/kg/h

With `CCCCCCCCCCCCN(C)C(=O)Cn1cc(Cc2cnc(=O)n(CC(=O)O)c2)c(=O)nc1SCc1ccc(F)cc1` [{5-[1-[(Dodecyl-methyl-carbamoyl)-methyl]-2-(4-fluoro-benzylsulfanyl)-4-oxo-1,4-dihydro-pyrimidin-5-ylmethyl]-2-oxo-2H-pyrimidin-1-yl}-acetic acid] the pIC50 was 6.27.
